# Assay results as given in patent publication US20260274892A1, “MACROCYCLIC BROAD SPECTRUM ANTIBIOTICS” (RQx Pharmaceuticals, Inc., priority 2017, published 2026).
# System: Escherichia coli ATCC 25922
# Assay: Minimum inhibitory concentration (MIC), CLSI broth micro-dilution, E. coli
# Assay type: cell-based
# Conditions: Escherichia coli, ATCC25922, 22 h, Table 7, cation adjusted Mueller Hinton Broth + 0.002% Tween-80, 35° C.
# In short: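 Antibacterial potency is measured as MIC by the CLSI broth dilution method. Bacteria at OD600 0.0005 in Tween-80-supplemented cation-adjusted Mueller Hinton broth face ten twofold compound dilutions for 22 h at 35° C.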
row,Structure (SMILES),MIC
1,"Cc1nc(-c2ccc(C(C)(C)C)cc2)nc(C)c1C(=O)N[C@@H](CNS(N)(=O)=O)C(=O)N(C)[C@@H]1C(=O)N[C@@H](C)C(=O)N[C@H](C(=O)NCC#N)Cc2ccc(OCCN)c(c2)-c2cc1ccc2OCCN (racemic) [Compound 572, rac-(8S,11S,14S)-3,18-bis(2-aminoethoxy)-N-(cyanomethyl)-11-methyl-14-[methyl-[rac-(2S)-2-[[2-(4-tert-butylphenyl)-4,6-dimethyl-pyrimidine-5-carbonyl]amino]-3-(sulfamoylamino)propanoyl]amino]-10,13-dioxo-9,12-diazatricyclo[13.3.1.12,6]icosa-1(18),2(20),3,5,15(19),16-hexaene-8-carboxamide]",0.28 µM
2,"Cc1nc(-c2ccc(OC3CCCCC3)cc2)nc(C)c1C(=O)N[C@@H](CNS(N)(=O)=O)C(=O)N[C@@H]1C(=O)N[C@@H](C)C(=O)N[C@H](C(=O)NCC#N)Cc2ccc(OCCN)c(c2)-c2cc1ccc2OCCN (racemic) [Compound 573, rac-(8S,11S,14S)-3,18-bis(2-aminoethoxy)-N-(cyanomethyl)-11-methyl-10,13-dioxo-14-[[rac-(2S)-2-[[2-[4-(cyclohexoxy)phenyl]-4,6-dimethyl-pyrimidine-5-carbonyl]amino]-3-(sulfamoylamino)propanoyl]amino]-9,12-diazatricyclo[13.3.1.12,6]icosa-1(18),2(20),3,5,15(19),16-hexaene-8-carboxamide]",0.5 µM
3,"Cc1nc(-c2ccc(C(C)(C)C)cc2)nc(C)c1C(=O)N[C@@H](CCNS(N)(=O)=O)C(=O)N(C)[C@@H]1C(=O)N[C@@H](C)C(=O)N[C@H](C(=O)NCC#N)Cc2ccc(OCCN)c(c2)-c2cc1ccc2OCCN (racemic) [Compound 574, rac-(8S,11S,14S)-3,18-bis(2-aminoethoxy)-N-(cyanomethyl)-11-methyl-14-[methyl-[rac-(2S)-2-[[2-(4-tert-butylphenyl)-4,6-dimethyl-pyrimidine-5-carbonyl]amino]-4-(sulfamoylamino)butanoyl]amino]-10,13-dioxo-9,12-diazatricyclo[13.3.1.12,6]icosa-1(18),2(20),3,5,15(19),16-hexaene-8-carboxamide]",0.5 µM
4,"Cc1nc(-c2ccc(C(C)(C)C)cc2)nc(C)c1C(=O)N[C@@H](CNS(N)(=O)=O)C(=O)N(C)[C@@H]1C(=O)N[C@@H](C)C(=O)N[C@H](C(=O)NCC#N)Cc2ccc(OCCCN)c(c2)-c2cc1ccc2OCCCN (racemic) [Compound 575, rac-(8S,11S,14S)-3,18-bis(3-aminopropoxy)-N-(cyanomethyl)-11-methyl-14-[methyl-[rac-(2S)-2-[[2-(4-tert-butylphenyl)-4,6-dimethyl-pyrimidine-5-carbonyl]amino]-3-(sulfamoylamino)propanoyl]amino]-10,13-dioxo-9,12-diazatricyclo[13.3.1.12,6]icosa-1(18),2(20),3,5,15(19),16-hexaene-8-carboxamide]",0.31 µM
5,"Cc1nc(-c2ccc(OC3CCCCC3)cc2)nc(C)c1C(=O)N[C@@H](CNS(N)(=O)=O)C(=O)N(C)[C@@H]1C(=O)N[C@@H](C)C(=O)N[C@H](C(=O)NCC#N)Cc2ccc(OCCCN)c(c2)-c2cc1ccc2OCCCN (racemic) [Compound 576, rac-(8S,11S,14S)-3,18-bis(3-aminopropoxy)-N-(cyanomethyl)-11-methyl-14-[methyl-[rac-(2S)-2-[[2-[4-(cyclohexoxy)phenyl]-4,6-dimethyl-pyrimidine-5-carbonyl]amino]-3-(sulfamoylamino)propanoyl]amino]-10,13-dioxo-9,12-diazatricyclo[13.3.1.12,6]icosa-1(18),2(20),3,5,15(19),16-hexaene-8-carboxamide]",0.5 µM
6,"Cc1nc(-c2ccc(OC(C)C)cc2)nc(C)c1C(=O)N[C@@H](CNS(N)(=O)=O)C(=O)N(C)[C@@H]1C(=O)N[C@@H](C)C(=O)N[C@H](C(=O)NCC#N)Cc2ccc(OC[C@H](O)CN)c(c2)-c2cc1ccc2OC[C@H](O)CN (racemic) [Compound 579, rac-(8S,11S,14S)-N-(cyanomethyl)-11-methyl-14-[methyl-[rac-(2S)-2-[[2-(4-isopropoxyphenyl)-4,6-dimethyl-pyrimidine-5-carbonyl]amino]-3-(sulfamoylamino)propanoyl]amino]-10,13-dioxo-3,18-bis[rac-(2R)-3-amino-2-hydroxy-propoxy]-9,12-diazatricyclo[13.3.1.12,6]icosa-1(18),2(20),3,5,15(19),16-hexaene-8-carboxamide]",0.75 µM
7,"Cc1nc(-c2ccc(C(C)(C)C)cc2)nc(C)c1C(=O)N[C@@H](CCNS(N)(=O)=O)C(=O)N(C)[C@@H]1C(=O)N[C@@H](C)C(=O)N[C@H](C(=O)NCC#N)Cc2ccc(OC[C@H](O)CN)c(c2)-c2cc1ccc2OC[C@H](O)CN (racemic) [Compound 580, rac-(8S,11S,14S)-N-(cyanomethyl)-11-methyl-14-[methyl-[rac-(2S)-2-[[2-(4-tert-butylphenyl)-4,6-dimethyl-pyrimidine-5-carbonyl]amino]-4-(sulfamoylamino)butanoyl]amino]-10,13-dioxo-3,18-bis[rac-(2R)-3-amino-2-hydroxy-propoxy]-9,12-diazatricyclo[13.3.1.12,6]icosa-1(18),2(20),3,5,15(19),16-hexaene-8-carboxamide]",0.58 µM

# Results, then the compound that gave them:
row,MIC,Structure (SMILES)
1,0.21 µM,"Cc1nc(-c2ccc(C(C)(C)C)cc2)nc(C)c1C(=O)N[C@@H](CNS(N)(=O)=O)C(=O)N(C)[C@@H]1C(=O)N[C@@H](C)C(=O)N[C@H](C(=O)NCC#N)Cc2ccc(OC[C@H](O)CN)c(c2)-c2cc1ccc2OC[C@H](O)CN (racemic) [Compound 577, rac-(8S,11S,14S)-N-(cyanomethyl)-11-methyl-14-[methyl-[rac-(2S)-2-[[2-(4-tert-butylphenyl)-4,6-dimethyl-pyrimidine-5-carbonyl]amino]-3-(sulfamoylamino)propanoyl]amino]-10,13-dioxo-3,18-bis[rac-(2R)-3-amino-2-hydroxy-propoxy]-9,12-diazatricyclo[13.3.1.12,6]icosa-1(18),2(20),3,5,15(19),16-hexaene-8-carboxamide]"
2,0.19 µM,"Cc1nc(-c2ccc(OC3CCCCC3)cc2)nc(C)c1C(=O)N[C@@H](CNS(N)(=O)=O)C(=O)N(C)[C@@H]1C(=O)N[C@@H](C)C(=O)N[C@H](C(=O)NCC#N)Cc2ccc(OC[C@H](O)CN)c(c2)-c2cc1ccc2OC[C@H](O)CN (racemic) [Compound 578, rac-(8S,11S,14S)-N-(cyanomethyl)-11-methyl-14-[methyl-[rac-(2S)-2-[[2-[4-(cyclohexoxy)phenyl]-4,6-dimethyl-pyrimidine-5-carbonyl]amino]-3-(sulfamoylamino)propanoyl]amino]-10,13-dioxo-3,18-bis[rac-(2R)-3-amino-2-hydroxy-propoxy]-9,12-diazatricyclo[13.3.1.12,6]icosa-1(18),2(20),3,5,15(19),16-hexaene-8-carboxamide]"
3,0.13 µM,"Cc1nc(-c2ccc(OC3CCCCC3)cc2)cc(N)c1C(=O)N[C@@H](CCN)C(=O)N(C)[C@@H]1C(=O)N[C@@H](C)C(=O)N[C@H](C(=O)NCC#N)Cc2ccc(OCCCN)c(c2)-c2cc1ccc2OCCCN (racemic) [Compound 565, rac-(8S,11S,14S)-3,18-bis(3-aminopropoxy)-N-(cyanomethyl)-11-methyl-14-[methyl-[rac-(2S)-4-amino-2-[[4-amino-6-[4-(cyclohexoxy)phenyl]-2-methyl-pyridine-3-carbonyl]amino]butanoyl]amino]-10,13-dioxo-9,12-diazatricyclo[13.3.1.12,6]icosa-1(18),2(20),3,5,15(19),16-hexaene-8-carboxamide]"
4,0.094 µM,"Cc1nc(-c2ccc(C(C)(C)C)cc2)nc(C)c1C(=O)N[C@@H](CCN)C(=O)N(C)[C@@H]1C(=O)N[C@@H](C)C(=O)N[C@H](C(=O)NCC#N)Cc2ccc(OCCN)c(c2)-c2cc1ccc2OC[C@H](O)CN (racemic) [Compound 571, rac-(8S,11S,14S)-3-(2-aminoethoxy)-N-(cyanomethyl)-11-methyl-14-[methyl-[rac-(2S)-4-amino-2-[[2-(4-tert-butylphenyl)-4,6-dimethyl-pyrimidine-5-carbonyl]amino]butanoyl]amino]-10,13-dioxo-18-[rac-(2R)-3-amino-2-hydroxy-propoxy]-9,12-diazatricyclo[13.3.1.12,6]icosa-1(18),2(20),3,5,15(19),16-hexaene-8-carboxamide]"
5,0.063 µM,"Cc1nc(-c2ccc(OC3CCCCC3)cc2)nc(C)c1C(=O)N[C@@H](CCN)C(=O)N(C)[C@@H]1C(=O)N[C@@H](C)C(=O)N[C@H](C(=O)NCC#N)Cc2ccc(OC[C@H](O)CN)c(c2)-c2cc1ccc2OC[C@H](O)CN (racemic) [Compound 568, rac-(8S,11S,14S)-N-(cyanomethyl)-11-methyl-14-[methyl-[rac-(2S)-4-amino-2-[[2-[4-(cyclohexoxy)phenyl]-4,6-dimethyl-pyrimidine-5-carbonyl]amino]butanoyl]amino]-10,13-dioxo-3,18-bis[rac-(2R)-3-amino-2-hydroxy-propoxy]-9,12-diazatricyclo[13.3.1.12,6]icosa-1(18),2(20),3,5,15(19),16-hexaene-8-carboxamide]"

# Same assay, conditions: Escherichia coli, ATCC25922, Table 7, cation adjusted Mueller Hinton Broth + 0.002% Tween-80, 35° C., 22 hours
row,Structure (SMILES),MIC
1,"Cc1nc(-c2ccc(OC(C)C)cc2)nc(C)c1C(=O)N[C@@H](CCN)C(=O)N(C)[C@@H]1C(=O)N[C@@H](C)C(=O)N[C@H](C(=O)NCC#N)Cc2ccc(OC[C@H](O)CN)c(c2)-c2cc1ccc2OC[C@H](O)CN (racemic) [Compound 569, rac-(8S,11S,14S)-N-(cyanomethyl)-11-methyl-14-[methyl-[rac-(2S)-4-amino-2-[[2-(4-isopropoxyphenyl)-4,6-dimethyl-pyrimidine-5-carbonyl]amino]butanoyl]amino]-10,13-dioxo-3,18-bis[rac-(2R)-3-amino-2-hydroxy-propoxy]-9,12-diazatricyclo[13.3.1.12,6]icosa-1(18),2(20),3,5,15(19),16-hexaene-8-carboxamide]",0.5 µM
